{
  "source": "patent EP0158267A2",
  "about": "“Pharmaceutical composition containing 5-(2-fluorophenyl)-1,3-dihydro-3-hydroxy-7-nitro- or 5-(2-fluorophenyl)-1,3-dihydro-3-hydroxy-1-methyl-7-nitro-2H-1,4-benzodiazepin-2-one and process for their preparation” (Dolorgiet Beteiligungs-GmbH, priority 1984, dated 1985)",
  "key": {"[1]": {"test_system": "Maus", "assay": "Prolongation of hexobarbital sleeping time (barbiturate narcosis, method of Fujimoto et al.)", "assay_type": "in vivo", "conditions": "for Verlängerung der Schlaf-zeit in % bei der Maus nach peroraler Gabe von 1mg/kg KG.: mouse, 1 mg/kg p.o., 30 min before 80 mg/kg hexobarbital i.v., versus control group; for schlafverlängernde Wirkung: statement in words", "description": "(1) Verlängerung der Schlafzeit\nDie Wirkung auf die Barbiturat-Narkose wurde in der Versuchsanordnung von J.M. Fujimoto et al. (J. Pharmacol. Exp. Ther. 129, 1960, 139) nachgewiesen. Gruppen von jeweils 10 männlichen Mäusen wurden die Testsubstanzen als Suspension in wässriger Carboxymethylcellulose mittels einer Stahlsonde auf oralem Weg direkt in den Magen verabreicht. 30 Minuten später wurde den Tieren 80 mg/kg Hexobarbital in eine Schwanzvene injiziert. Es wurde die Dauer des Schlafs gemessen und aus den Schlafzeiten der einzelnen Tiere der Kontroll-und Dosisgruppen die jeweiligen Mittelwerte berechnet. Die Verlängerung der Schlafzeit wurde in Prozent gegenüber der Kontrollgruppe berechnet."}, "[2]": {"assay": "Acute toxicity, oral, 7 days observation (Litchfield and Wilcoxon)", "assay_type": "in vivo, Maus", "conditions": "in vivo; mouse, oral, 7 days observation; * = highest technically applicable dose; read-out: Akute Toxi-zität LD50 mg/kg KG. Maus oral", "source_text": "(§1) Für diesen Versuch wurden je 10 männliche und weibliche Mäuse verwendet. Die Testsubstanzen wurden als Suspension in wässriger Carboxymethylcellulose per Magensonde verabreicht. Die Beobachtungszeit betrug 7 Tage. Die Ergebnisse wurden nach der Methode von G.T. Litchfield und F.G. Wilcoxon (J. Pharmacol. Exp. Ther. 96, 1949, 99) errechnet. Die Ergebnisse sind in der nachfolgenden Tabelle zusammengestellt."}, "[3]": {"test_system": "Maus", "assay": "Acute toxicity, oral, 7 days observation (Litchfield and Wilcoxon)", "assay_type": "in vivo", "conditions": "for Zustand nach 24 h: mouse, oral, condition of animals 24 h after dosing; for Toxizität / Zustand der überlebenden Tiere: statement in words; for Zustand der überlebenden Tiere: findings above the dose without findings", "source_text": "as §1"}, "[4]": {"test_system": "Maus", "assay": "Fighting test: inhibition of current-induced fighting (method of Tedeschi et al.)", "assay_type": "in vivo", "conditions": "statement in words; for tranquillisierende Wirkung im Kampftest: DP 327 compared with Flunitrazepam", "source_text": "Die Hemmwirkung gegenüber strominduzierter Kampfhandlungen bei Mäusen wurde in der Versuchsanordnung von R. Tedeschi et al. (J. Pharmacol. Exp. Ther. 125, 1959, 28) ermittelt. 10 Paare weiblicher Mäuse werden am Vortag des Versuches 3 Minuten elektrischen Stromstößen von 3,5 mA, 5 Hz und 5 msec ausgesetzt. Am Versuchstag werden die Testsubstanzen als Suspension in wässriger Carboxymethylcellulose mittels Magensonde peroral verabreicht. 30 Minuten nach der Verabreichung werden jeweils ein Paar in einem Testkäfig wieder den Stromstößen ausgesetzt und die innerhalb von 3 Minuten ausgelösten Kampfhandlungen gezählt. Die Zahl der Kampfhandlungen der jeweiligen Dosisgruppen werden addiert und in Prozent gegenüber der Kontrollgruppe berechnet. Der ED50-Wert wurde mittels halblogarithmischer Regression aus den Dosis-Wirkungsbeziehungen bestimmt."}, "[5]": {"assay": "Sleep induction (onset), no method described", "assay_type": "in vivo", "conditions": "statement in words"}, "[6]": {"conditions": "DP 327 compared with Flunitrazepam, Beispiel 12 of DE-OS 14 45 873 compared with DP 327"}},
  "data": [
    {"smiles": "CN1C(=O)C(O)N=C(c2ccccc2)c2cc([N+](=O)[O-])ccc21", "note": "(centres unmarked) [DE-OS 14 45 873 Beispiel 12, reference compound]", "values": [
      {"measurement": "Verlängerung der Schlaf-zeit in % bei der Maus nach peroraler Gabe von 1mg/kg KG.", "setting": "[1]", "value": 99, "unit": "%"},
      {"measurement": "schlafverlängernde Wirkung", "setting": "[1]; [6]", "value": "geringerer schlafverlängernder Wirkung"},
      {"measurement": "LD50 at 168 h", "setting": "[2]", "value": 4700, "unit": "mg/kg"},
      {"measurement": "Zustand nach 24 h", "setting": "[3]", "value": "bis 3200 mg/kg ohne Befund; ab 3200 mg/kg starke Sedierung, Koma."},
      {"measurement": "Toxizität", "setting": "[3]", "value": "toxischer als DP 327"}
    ]},
    {"smiles": "CN1C(=O)C(O)N=C(c2ccccc2F)c2cc([N+](=O)[O-])ccc21", "note": "(centres unmarked) [DP 327, 5-(2-Fluorphenyl)-1,3-dihydro-3-hydroxy-1-methyl-7-nitro-2H-1,4-benzodiazepin-2-on]", "values": [
      {"measurement": "Verlängerung der Schlaf-zeit in % bei der Maus nach peroraler Gabe von 1mg/kg KG.", "setting": "[1]", "value": 156, "unit": "%"},
      {"measurement": "schlafverlängernde Wirkung", "setting": "[1]; compared with Lormetazepam", "value": "deutlich überlegen"},
      {"measurement": "schlafverlängernde Wirkung", "setting": "[1]; [6]", "value": "gleichwertig"},
      {"measurement": "tranquillisierende Wirkung", "setting": "[4]; compared with Lormetazepam", "value": "deutlich überlegen"},
      {"measurement": "tranquillisierende Wirkung im Kampftest", "setting": "[4]", "value": "etwa doppelt so starke tranquillisierende Wirkung"},
      {"measurement": "LD50 at 168 h", "setting": "[2]", "value": "> 8690", "unit": "mg/kg"},
      {"measurement": "Zustand nach 24 h", "setting": "[3]", "value": "bis 3600 mg/kg ohne Befund; 4824-8687 mg/kg leichte Sedierung."},
      {"measurement": "Toxizität", "setting": "[3]", "value": "sehr wenig toxisch"},
      {"measurement": "Toxizität", "setting": "[3]; compared with Lormetazepam", "value": "deutlich überlegen"},
      {"measurement": "Zustand der überlebenden Tiere", "setting": "[3]", "value": "nur eine leichte Sedierung und Stereotypie"},
      {"measurement": "Todesfälle", "setting": "[3]; up to the highest applicable dose of 8687 mg/kg", "value": "nur vereinzelt Todesfälle"},
      {"measurement": "Schlafinduktion", "setting": "[5]", "value": "rasche Schlafinduktion"}
    ]},
    {"smiles": "O=C1Nc2ccc([N+](=O)[O-])cc2C(c2ccccc2F)=NC1O", "note": "(centres unmarked) [DP 370, 5-(2-Fluorphenyl)-1,3-dihydro-3-hydroxy-7-nitro-2H-1,4-benzodiazepin-2-on]", "values": [
      {"measurement": "Verlängerung der Schlaf-zeit in % bei der Maus nach peroraler Gabe von 1mg/kg KG.", "setting": "[1]", "value": 118, "unit": "%"},
      {"measurement": "schlafverlängernde Wirkung", "setting": "[1]; [6]", "value": "gute schlafverlängerde Wirkung"},
      {"measurement": "tranquillisierende Wirkung im Kampftest", "setting": "[4]", "value": "gute tranquillisierende"},
      {"measurement": "LD50 at 168 h", "setting": "[2]", "value": "> 10000", "unit": "mg/kg"},
      {"measurement": "Zustand nach 24 h", "setting": "[3]", "value": "bis 4640 mg/kg ohne Befund; ab 4640 mg/kg leichte Sedierung Sedierung, und Ataxie."},
      {"measurement": "Toxizität", "setting": "[3]", "value": "wesentlich geringeren Toxizität als die genannten Vergleichssubstanzen"}
    ]},
    {"smiles": "CN1C(=O)CN=C(c2ccccc2F)c2cc([N+](=O)[O-])ccc21", "note": "[Flunitrazepam, 5-(2-Fluorphenyl)-1,3-dihydro-1-methyl-7-nitro-2H-1,4-benzodiazepin-2-on, reference compound]", "values": [
      {"measurement": "Verlängerung der Schlaf-zeit in % bei der Maus nach peroraler Gabe von 1mg/kg KG.", "setting": "[1]", "value": 179, "unit": "%"},
      {"measurement": "LD50 at 168 h", "setting": "[2]", "value": 2700, "unit": "mg/kg"},
      {"measurement": "Zustand nach 24 h", "setting": "[3]", "value": "bis 1100 mg/kg ohne Befund; ab 1100 mg/kg starke Sedierung, Koma, Stereotypie."},
      {"measurement": "Zustand der überlebenden Tiere", "setting": "[3]", "value": "von starker Sedierung und Stereotypie bis zum Koma"},
      {"measurement": "Schlafinduktion", "setting": "[5]", "value": "langsam einsetzt"}
    ]},
    {"smiles": "CN1C(=O)C(O)N=C(c2ccccc2Cl)c2cc(Cl)ccc21", "note": "(centres unmarked) [Lormetazepam, 7-Chlor-5-(2-chlorphenyl)-1,3-dihydro-3-hydroxy-1-methyl-2H-1,4-benzodiazepin-2-on, reference compound]", "values": [
      {"measurement": "Verlängerung der Schlaf-zeit in % bei der Maus nach peroraler Gabe von 1mg/kg KG.", "setting": "[1]", "value": 78, "unit": "%"},
      {"measurement": "LD50 at 168 h", "setting": "[2]", "value": 6300, "unit": "mg/kg"},
      {"measurement": "Zustand nach 24 h", "setting": "[3]", "value": "900-1240 mg/kg leichte Sedierung; ab 1700 mg/kg zunehmend starke Sedierung."},
      {"measurement": "Schlafinduktion", "setting": "[5]", "value": "fehlt"}
    ]}
  ]
}
